Measurements taken from patent publication US11337449B2, “Compositions and their use” (NESTEC S.A., priority 2015, dated 2022).

How the values were obtained:
[1] = test system: brain myelination (myelin water fraction); assay: Cross-sectional correlation of infant formula nutrient content with brain myelination (myelin water fraction, mcDESPOT MRI); format: in vivo, human; conditions: children up to 5 years fed infant formulas
Procedure: MRI (Magnetic Resonance Imaging): MRI brain scans of infants and children between 0 and 5 years were acquired using a white matter imaging technique. This technique provides a quantitative measure, the Myelin Water Fraction (MWF), which is a surrogate marker of myelin content in the brain. When mapped as a function of time across early childhood, myelination trajectories can be generated.
Infant formula composition: six infant formulas fed to infants participating in a study were analyzed for their composition/level of myelin-relevant nutrients.
Each infant was scanned using the mcDESPOT (multicomponent Driven Equilibrium Single Pulse Observation of T1 and T2) white matter imaging technique Deoni et al. (Magn. Reson. Med. 2008, 60:1372-1387), which provides a quantitative measure of the myelin water fraction (MWF)—a measure of myelin content—at each point throughout the brain. All infants were scanned during natural (i.e. non-sedated) sleep using acoustically-muffled mcDESPOT imaging protocols. Total imaging times ranged from 19 minutes for the youngest toddlers to 24 minutes for the older 4 year-old children.
Following image alignment, non-brain signal removal, and correction for main and transmit magnetic field (B0 and B1) inhomogeneities, a three-pool signal model (comprising the myelin-associated water; intra-extra axonal water; and a non-exchanging free-water pool) was fit to the mcDESPOT data to derive voxel-wise MWF maps.
Each child's map was then non-linearly aligned to a study specific template. White matter masks, corresponding to 5 bilateral regions (frontal, temporal, occipital, parietal, and cerebellar WM) as well as the body, genu, and splenium of the corpus callosum were created from common databases, registered to the common template, and superimposed onto each child's MWF map. Mean values for each region were then determined for each child and used for subsequent developmental analysis and trajectory modeling.
From the cohort described above, children up to 5 years of age that were fed different infant formulas during infancy were included in a large correlation analysis to examine the relationship between formula nutrient composition and brain myelination. The 6 most frequently used formulas in that cohort were analyzed for their nutritional composition. A single general linear model (GLM) was constructed that modeled all quantified nutrients and child age.
Spearman rank correlations were then calculated between the nutrient content and myelin content value (adjusted for child age) at each image voxel, or point within the brain. Significance was defined as p<0.05 corrected for type 1 error using a cluster based correction approach. An association or trend was defined as p<0.15. […] To reduce the number of nutritional components in the model, we examined the inter-nutritional correlation. Using a conservative threshold of 0.9, we excluded nutritional components that were highly correlated with each other across the various formulas.

[2] = test system: neural progenitor cell (NPCs) from E14 mouse neocortex; assay: Monolayer culture NPC proliferation assay (EdU incorporation / DAPI); format: cell-based; conditions: lowSM (Dose 1: 10 nM); 3 days culture
Procedure: Monolayer Culture NPC Proliferation Assay (Incorporation of EdU—S Phase Marker)
After 24 h, it was ensured that cells had attached to the plate then the medium was carefully removed. 500 μL of compound media plus GF. was added. The cells were cultured for 3 days in appropriate media.
Control and compound media was made with #2 media and contains 29 uM Choline, Low (5 uM) and medium (70 uM) choline media was made with #3 media.
EDU incorporation was measured using Click-IT® EdU Alexa Fluor® 555 Imaging Kit (Life technologies, #c10338).
At the end of day 3 EdU was added to each well at 10 μM for 30 minutes prior to fixation.
For fixation and subsequent immunohistochemical analysis, the medium was removed, the cells were rinsed once with 1×PBS for 5 min, and fixed with 4% PFA in 1×PBS for 15 min at 4° C., then the cells were washed twice with 1×PBS for 5 min, left in 1×PBS, wrapped in foil and leave overnight at 4° C., or staining was proceeded with.
PBS was removed and enough AB staining solution (1% Goat serum, 1×PBS, and 0.1% triton X) added to cover the bottom, the block was kept at room temp for 1 hour. The cells were stained for EDU. The cells were Incubated for 30 min at room temp, in the dark. The cells were washed with 1×PBS and stained with Dapi 1:5000 ul for 15 min. […]

[3] = test system: neural progenitor cell (NPCs) from E14 mouse neocortex; assay: Neurosphere counts in 96-well plates; format: cell-based; conditions: Low (Dose 1: 10 nM); cells grown 2 days
Procedure: Generation of neural progenitor cell (NPCs) libraries:
E14 pup brains were harvested and placed in ice cold DPBS(1×)+10% Pen/Strep, then they were dissected using a dissecting microscope. From each pup, one brain hemisphere was placed in 2 ml of Neurobasal media/10% P/S/10× Hepes and another brain hemisphere was placed in another tube.
The tissue from each tube was aseptically and manually dissociate into single cells, neurobasal complete medium was added and centrifuged at 130G for 5 min. The tissue was then re-suspended in neurobasal complete media with GF and placed in a corning suspension culture dish 100 mm×20 mm (#430591). Cells were passage twice using a 1:3 ratio, after what they were centrifuged (130 g 5 min), resuspended in freezing media (10% DMSO and neurobasal complete media, no GF) and frozen in liquid nitrogen (LN2).
Plating Cells in 96-Well Plates for Neurosphere Counts and Diameters Only
3-4 mLs of cells were taken out of the tilted plate and add to a 15 ml conical. Some of the remaining media was used to rinse down the plate. All remaining media was drawn up and put into a 15 ml conical tube, and Spun at 130G for 5 min. All media was removed. […]
1. […] Imaging was carried out using a GE Cytell imager or LSM 710, Zeiss confocal microscope and the diameters of neurospheres with ImageJ software (National Institutes of Health) was analysed.

[4] = test system: neural progenitor cell (NPCs) from E14 mouse neocortex; assay: Differentiation assay: quantification of neuronal and glial marker expression in monolayer NPC culture; format: cell-based; conditions: 9 d culture; for astrocyte cell density (astrocytic): GFAP normalized to DAPI
Procedure: Generation of neural progenitor cell (NPCs) libraries: dissociation of E14 mouse neocortex E14 pup brains were harvested and placed in ice cold DPBS(1×)+10% Pen/Strep, then they were dissected using a dissecting microscope. From each pup, one brain hemisphere was placed in 2 ml of Neurobasal media/10% P/S/10× Hepes and another brain hemisphere was placed in another tube. The tissue from each tube was aseptically and manually dissociate into single cells, neurobasal complete medium was added and centrifuged at […] for 5 min. The tissue was then re-suspended in neurobasal complete media with GF and placed in a corning suspension culture dish 100 mm×20 mm (#430591). […] Plating Cells in 24 Well Plate for Monolayer Differentiation or EdU Incorporation Assays 24 well glass bottom plates (Mat Tek […]-1.0-13-F Case, glass bottom 24 well plates) were coated with poly-L-ornithin (Sigma P4957) and Fibronection (Sigma F1141) before use in the assay below. Cells were plated (10,000 cells per well) in Complete media with GF for 24 hours (500 ul per well). […] Differentiation Assay: Quantification of Neuronal, Glial and NPC Marker Expression After 24 hours, it was ensured that cells were attached to the plate, then the medium was carefully removed. […] Note: medium contains no GF. […] The cells were culture for 9 d in media plus 2% Nu Serum, the medium was changed every 2nd day. For fixation and subsequent immunohistochemical analysis the medium was removed, the cells were rinsed once with 1×PBS for 5 min, and fixed with 4% PFA in 1×PBS for 15 min at 4° C. The cells were then washed twice with 1×PBS for 5 min, left in 1×PBS, wrapped in foil and left overnight at 4C, or they were immediately primary antibody staining was carried out. PBS was removed and enough AB staining solution (1% Goat serum, 1×PBS, and 0.1% triton X) was added to cover the bottom, the block was kept at room temp for 1 hour. Primary antibody dilutions were made in appropriate amount of AB staining solution, 250 ul per well (the antibodies were only kept out on ice for a short time, mouse anti-MAP2 or TUJ1 1:500 (neuron marker), rabbit anti-GFAP (glial marker) 1:1000, chicken anti-Nestin CFP (EGFP antibody (progenitor cell marker)) 1:1000. AB staining solution was removed and a solution of primary antibodies was added to each chamber. The cells were wrapped in foil and kept overnight 4° C. The cells were then washed with 400 ul of AB staining solution for 5 min once to remove primary antibodies. Secondary antibody solutions were made (enough for 250 ul of each chamber) (Goat anti-mouse alexa 488 1:2000, anti-rabbit Cy3 (1:500), anti-chicken alexa 647 1:500, and 1:5000 Dapi). The cells were incubated at room temp for 1 hour in the dark and washed 2 time in AB staining solution for five mins. They were then kept at 4° C. or Imaged using a GE Cytell imager or LSM 710, Zeiss confocal microscope and analyze with ImageJ software (National Institutes of Health). Microtubule-Associated Protein 2 (MAP2), Neuronal Beta-Tubulin III(TuJ1), Glial Fibrillary Acidic Protein (GFAP), and Nestin CFP (EGFP Antibody). Each marker expression was measured on collected images (integrated density measure in ImageJ) and normalized to DAPI fluorescence, marking all nuclei (integrated density measure). Octanoic Acid were labeled with neuronal beta-tubulin III (TuJ1), subsequent compounds were labeled with Microtubule-associated protein 2 (MAP2).

For phosphatidylcholine, the “association of nutrient with myelination (myelin water fraction) over time in the brain” value [1] was “an association with myelination (myelin water fraction) was observed over time in the brain”.

For Sphingomyelin, the “association of nutrient with myelination (myelin water fraction) over time in the brain” value [1] was “an association with myelination (myelin water fraction) was observed over time in the brain”, the “neuronal proliferation (DAPI)” value [2] was 280 and the “number of neurospheres, Average (Mean)” value [3] was 94.

For `[P]` [phosphorus], the “association of nutrient with myelination (myelin water fraction) over time in the brain” value [1] was “an association with myelination (myelin water fraction) was observed over time in the brain”.

With `[Mg+2]` [magnesium] the “association of nutrient with myelination (myelin water fraction) over time in the brain” value [1] was “an association with myelination (myelin water fraction) was observed over time in the brain”.

For vitamin B12, the “association of nutrient with myelination (myelin water fraction) over time in the brain” value [1] was “an association with myelination (myelin water fraction) was observed over time in the brain”.

For `CCCCCCCCCCCCCCCCCC(=O)O` [Stearic acid, Stearic Acid], the “astrocyte cell density (astrocytic)” value ([4]; highSA (Dose 3: 10 μM)) was 0.85, the “Neuronal Cell density (Neuronal)” value ([4]; highSA (Dose 3: 10 μM), MAP2 normalized to DAPI) was 0.64 and the “astrocyte cell density (astrocytic)” value ([4]; lowSA (Dose 1: 100 nM)) was 0.68. The “Neuronal Cell density (Neuronal)” value ([4]; lowSA (Dose 1: 100 nM), MAP2 normalized to DAPI) was 0.54, the “astrocyte cell density (astrocytic)” value ([4]; medSA (Dose 2: 1 μm)) was 0.81 and the “Neuronal Cell density (Neuronal)” value ([4]; medSA (Dose 2: 1 μm), MAP2 normalized to DAPI) was 0.66.

phosphatidylinositol was tested, and the “association of nutrient with myelination (myelin water fraction) over time in the brain” value [1] was “an association with myelination (myelin water fraction) was observed over time in the brain”.

`CCCCC/C=C\C/C=C\C/C=C\C/C=C\CCCC(=O)O` [AA, arachidonic acid] was tested, and the “association of nutrient with myelination (myelin water fraction) over time in the brain” value [1] was “an association with myelination (myelin water fraction) was observed over time in the brain”.

With `CCCCCCCC(=O)O` [Octanoic acid, Octanoic Acid] the “astrocyte cell density (astrocytic)” value ([4]; HighOA (Dose 3: 250 μM)) was 7.9, the “Neuronal Cell density (Neuronal)” value ([4]; HighOA (Dose 3: 250 μM), TuJ1 normalized to DAPI) was 1.7 and the “astrocyte cell density (astrocytic)” value ([4]; lowOA (Dose 1: 10 μM)) was 3.7. The “Neuronal Cell density (Neuronal)” value ([4]; lowOA (Dose 1: 10 μM), TuJ1 normalized to DAPI) was 1.2, the “astrocyte cell density (astrocytic)” value ([4]; medOA (Dose 2: 50 μM)) was 6.1 and the “Neuronal Cell density (Neuronal)” value ([4]; medOA (Dose 2: 50 μM), TuJ1 normalized to DAPI) was 1.8.

With `[Ca+2]` [calcium] the “association of nutrient with myelination (myelin water fraction) over time in the brain” value [1] was “an association with myelination (myelin water fraction) was observed over time in the brain”.

iron was tested, and the “association of nutrient with myelination (myelin water fraction) over time in the brain” value [1] was “an association with myelination (myelin water fraction) was observed over time in the brain”.

For `[Zn]` [zinc], the “association of nutrient with myelination (myelin water fraction) over time in the brain” value [1] was “an association with myelination (myelin water fraction) was observed over time in the brain”.
